Read-outs that look alike come from different tables or passages of the source.
Tests used:
[1] = Metabolic stability, pooled human liver microsome incubations; details: for Predicted In Vivo Hepatic Clearance, CLH: from pHLM CLint, well-stirred model with plasma fu, Q 21 mL min^−1 kg^−1; for CLint scaled at 0.5 µM / half-life at 0.5 µM: human, microsomes; for CLint scaled at 0.5 µM: pH 7.4, Intrinsic clearance; for half-life at 0.5 µM: pH 7.4, T1/2 (min)
[2] = Short-term plasma stability with and without esterase inhibitors; details: 3 h, 37 °C; for remaining at 3 h, 5 µM: human, pH 7.4, Parent Compound Remaining (%)
Experimental: The pooled plasma used for both plasma stability and plasma binding studies originated from 50 donors, collected as whole blood from donors in the United States at an FDA-approved collection center, processed into plasma by centrifugation and immediately frozen (Innovative Research; Novi, MI, USA) and purchased from Patricell (Nottingham, UK). […] Stock solutions were prepared in DMSO. […] For incubations without inhibitor an equivalent volume of DMSO was included. Plasma mixture was pre-incubated at 37 °C for 5 min. Test compounds (5 µM) and procaine (positive control, 50 µM) were added to pre-warmed plasma mixture containing inhibitors. Incubation volume was 1 mL. Samples were mixed and 80 µL was immediately sampled and quenched into 200 µL ACN spiked with donepezil (internal standard (IS), 50 ng mL^−1). […] Peak area ratio of analyte to IS was used to determine half-lives of test compounds in plasma, both with and without the presence of esterase inhibitors.
The human plasma used was pooled from 50 donors, and was collected as whole blood from donors in
the United States at an FDA-approved collection center, processed into plasma by centrifugation and
The stability of the tested SCRAs, select metabolites and procaine control in pooled human plasma over
inhibitors bis(4-nitrophenyl) phosphate (BNPP) and phenyl methyl sulphonyl fluoride (PMSF) is

[3] = tested on: pooled human cryopreserved hepatocytes (pHHeps); assay: Metabolic stability, pooled human cryopreserved hepatocyte incubations; details: for Predicted In Vivo Hepatic Clearance, CLH: from pHHeps CLint, well-stirred model with plasma fu, Q 21 mL min^−1 kg^−1; for T1/2: pHHeps 0.25 million cells mL^−1, 0.5 µM, 37 °C, n ≥ 3 ± SD; for Intrinsic clearance, CLint: alternative hepatocyte cell density 99x10^6 hepatocytes per gram liver
[4] = Plasma protein binding by equilibrium dialysis; format: in vitro ADME, human; details: 37 °C; for fraction unbound at 5 h, 10 µg mL^−1: human, pooled human plasma, pH 7.4, equilibrium dialysis 5 h
Experimental: Plasma protein binding was assessed by equilibrium dialysis in a 96-well dialysis block (HTDialysis, Ledyard, CT, USA). Dialysis membranes (12–14 kDa) were soaked in deionised water for at least 60 min. Membranes were soaked overnight at 4 °C in ethanol:water 20:80% v/v and then rinsed with deionised water immediately prior to use. […] Spiked plasma (150 µL) was dialysed against isotonic phosphate buffer (pH 7.4) (150 µL) for 5 h at 37 °C with shaking at 100 rpm. Thermal degradation controls for each test compound were kept at 37 °C and 4 °C. Blank control plasma and buffer were included in the incubation. Following incubation, dialysed plasma samples and thermal degradation controls (50 µL) were added to drug-free buffer (50 µL), and dialysed buffer samples (50 µL) were added to drug-free plasma (50 µL). […] Supernatant (150 µL) was added to 50 µL deionised water and samples were analysed by UPLC-MS/MS as described above. Dialysed buffer from each well was tested for protein contamination using BCA protein assay reagent to determine whether membranes had been compromised.
Bu = Analyte/IS ratio determined in buffer side (2) Fraction unbound, fu=(100−% bound)/100

[5] = Metabolic stability, pooled human cryopreserved hepatocyte incubations; details: human, hepatocytes; for CLint scaled at 0.5 µM: Intrinsic clearance, pHHeps, alternative hepatocyte cell density 99x10^6 hepatocytes per gram liver; for half-life at 0.5 µM: T1/2 (min), pHHeps 0.25 million cells mL^−1, 0.5 µM, 37 °C, n ≥ 3 ± SD
[6] = pHLM 0.5 mg mL^−1, 0.5 µM, NADPH, 37 °C, n ≥ 3 ± SD
[7] = pHLM, alternative microsomal scaling factor 32 mg microsomal protein per gram liver
[8] = pHLM, alternative microsomal scaling factor 45 mg microsomal protein per gram liver
[9] = pHLM, scaling factor 32 mg microsomal protein per gram liver
[10] = pHLM, scaling factor 45 mg microsomal protein per gram liver
[11] = pHHeps, 99x10^6 hepatocytes per gram liver
[12] = equilibrium dialysis 5 h, 10 µg mL^−1
[13] = Esterase Inhibitors, pH 7.4, BNPP and PMSF 500 µM each
[14] = plasma, No Esterase Inhibitors, pH 7.4, pooled human plasma
[15] = plasma, read-out: Fraction Unbound (fu)

C=CCCCn1cc(C(=O)N[C@@H](C(=O)OC)C(C)(C)C)c2ccccc21 [(R)-MDMB-4en-PICA (12), methyl 3,3-dimethyl-2-[1-(pent-4-en-1-yl)-1H-indole-3-carboxamido]butanoate]
Predicted In Vivo Hepatic Clearance, CLH [1]: 9.81 ± 0.75 mL/min/kg | Hepatic extraction ratio, EH ([1]; from pHLM incubations): 0.47 ± 0.036 | T1/2 [1, 6]: 5.4 ± 0.74 min | % parent compound remaining, Average ([1]; pHLM, 3 min): 67.7% | % parent compound remaining, Average ([1]; pHLM, 6 min): 47.7% | % parent compound remaining, Average ([1]; pHLM, 9 min): 31.7% | % parent compound remaining, Average ([1]; pHLM, 15 min): 13.8% | % parent compound remaining, Average ([1]; pHLM, 30 min): 1.7% | Intrinsic clearance, CLint [1, 7]: 213 mL/min/kg | Intrinsic clearance, CLint [1, 8]: 300 mL/min/kg | Microsomal Intrinsic Clearance, CLint micr ([1]; pHLM, n ≥ 3 ± SD): 0.260 ± 0.040 mL min^−1 mg Microsomal Protein^−1 | Hepatic extraction ratio, EH [1, 9]: 0.35 ± 0.033 | Predicted in vivo hepatic clearance, CLH [1, 9]: 7.32 ± 0.70 mL/min/kg | Hepatic extraction ratio, EH [1, 10]: 0.43 ± 0.035 | Predicted in vivo hepatic clearance, CLH [1, 10]: 9.01 ± 0.74 mL/min/kg | Parent Compound Remaining (%), Esterase Inhibitors ([2]; pH 7.4, BNPP and PMSF 500 µM each): 87.7 ± 11.0% | Parent Compound Remaining (%), No Esterase Inhibitors ([2]; pH 7.4, pooled human plasma): 90.3 ± 5.4% | Predicted In Vivo Hepatic Clearance, CLH [3]: 6.42 ± 0.62 mL/min/kg | Hepatic extraction ratio, EH ([3]; from pHHeps incubations): 0.31 ± 0.029 | T1/2 [3]: 44 ± 6.3 min | Hepatic extraction ratio, EH [3, 11]: 0.29 ± 0.028 | Predicted in vivo hepatic clearance, CLH [3, 11]: 6.08 ± 0.60 mL/min/kg | % parent compound remaining, Average ([3]; pHHeps, 3 min): 90.1% | % parent compound remaining, Average ([3]; pHHeps, 6 min): 81.5% | % parent compound remaining, Average ([3]; pHHeps, 9 min): 83.7% | % parent compound remaining, Average ([3]; pHHeps, 15 min): 79.3% | % parent compound remaining, Average ([3]; pHHeps, 30 min): 61.6% | % parent compound remaining, Average ([3]; pHHeps, 45 min): 46.4% | % parent compound remaining, Average ([3]; pHHeps, 60 min): 40.6% | Intrinsic clearance, CLint ([3]; pHHeps): 162 ± 22.16 mL/min/kg | PPB (%) [4, 12]: 94.7 ± 1.11% | Fraction Unbound (fu) ([4]; equilibrium dialysis 5 h, plasma): 0.053 ± 0.0111

COC(=O)[C@H](NC(=O)c1nn(Cc2ccc(F)cc2)c2ccccc12)C(C)(C)C [(R)-MDMB-FUBINACA (6)]
CLint scaled at 0.5 µM [1, 7]: 58.2 mL/min/kg | CLint scaled at 0.5 µM [1, 8]: 81.8 ± 10.5 mL/min/kg | half-life at 0.5 µM [1, 6]: 20 ± 2.5 min | % parent compound remaining, Average ([1]; pHLM, 3 min): 77.3% | % parent compound remaining, Average ([1]; pHLM, 6 min): 75.0% | % parent compound remaining, Average ([1]; pHLM, 9 min): 70.2% | % parent compound remaining, Average ([1]; pHLM, 15 min): 57.2% | % parent compound remaining, Average ([1]; pHLM, 30 min): 33.3% | Microsomal Intrinsic Clearance, CLint micr ([1]; pHLM, n ≥ 3 ± SD): 0.071 ± 0.009 mL min^−1 mg Microsomal Protein^−1 | CLint scaled at 0.5 µM [5]: 221 mL/min/kg | half-life at 0.5 µM [5]: 32 ± 5.4 min | % parent compound remaining, Average ([3]; pHHeps, 3 min): 93.0% | % parent compound remaining, Average ([3]; pHHeps, 6 min): 82.9% | % parent compound remaining, Average ([3]; pHHeps, 9 min): 77.6% | % parent compound remaining, Average ([3]; pHHeps, 15 min): 70.2% | % parent compound remaining, Average ([3]; pHHeps, 30 min): 53.1% | % parent compound remaining, Average ([3]; pHHeps, 45 min): 57.7% | % parent compound remaining, Average ([3]; pHHeps, 60 min): 41.1%

COC(=O)[C@@H](NC(=O)c1nn(CCCCF)c2ccccc12)C(C)(C)C [(S)-4F-MDMB-BINACA (4), methyl 2-[1-(4-fluorobutyl)-1H-indazole-3-carboxamido]-3,3-dimethylbutanoate]
Predicted In Vivo Hepatic Clearance, CLH [1]: 7.51 ± 0.88 mL/min/kg | Hepatic extraction ratio, EH ([1]; from pHLM incubations): 0.36 ± 0.042 | CLint scaled at 0.5 µM [1, 7]: 118 mL/min/kg | CLint scaled at 0.5 µM [1, 8]: 165 mL/min/kg | half-life at 0.5 µM [1, 6]: 9.9 ± 1.9 min | % parent compound remaining, Average ([1]; pHLM, 3 min): 74.9% | % parent compound remaining, Average ([1]; pHLM, 6 min): 63.6% | % parent compound remaining, Average ([1]; pHLM, 9 min): 50.4% | % parent compound remaining, Average ([1]; pHLM, 15 min): 32.7% | % parent compound remaining, Average ([1]; pHLM, 30 min): 17.0% | Microsomal Intrinsic Clearance, CLint micr ([1]; pHLM, n ≥ 3 ± SD): 0.143 ± 0.025 mL min^−1 mg Microsomal Protein^−1 | Hepatic extraction ratio, EH [1, 9]: 0.25 ± 0.034 | Predicted in vivo hepatic clearance, CLH [1, 9]: 5.33 mL/min/kg | Predicted in vivo hepatic clearance, CLH [1, 10]: 6.78 mL/min/kg | remaining at 3 h, 5 µM [2, 13]: 96 ± 2.9% | remaining at 3 h, 5 µM [2, 14]: 93.1 ± 5.1% | Predicted In Vivo Hepatic Clearance, CLH [3]: 12.08 ± 0.23 mL/min/kg | Hepatic extraction ratio, EH ([3]; from pHHeps incubations): 0.58 ± 0.011 | T1/2 [3]: 16 ± 0.74 min | Hepatic extraction ratio, EH [3, 11]: 0.56 ± 0.011 | Predicted in vivo hepatic clearance, CLH [3, 11]: 11.68 ± 0.24 mL/min/kg | % parent compound remaining, Average ([3]; pHHeps, 3 min): 82.3% | % parent compound remaining, Average ([3]; pHHeps, 6 min): 73.7% | % parent compound remaining, Average ([3]; pHHeps, 9 min): 69.2% | % parent compound remaining, Average ([3]; pHHeps, 15 min): 53.9% | % parent compound remaining, Average ([3]; pHHeps, 30 min): 25.8% | % parent compound remaining, Average ([3]; pHHeps, 45 min): 12.5% | % parent compound remaining, Average ([3]; pHHeps, 60 min): 6.2% | Intrinsic clearance, CLint ([3]; pHHeps): 432 ± 20.0 mL/min/kg | PPB (%) [4, 12]: 93.9 ± 0.28% | fraction unbound at 5 h, 10 µg mL^−1 [4, 15]: 0.061 ± 0.0028

CC(C)[C@H](NC(=O)c1nn(CC2CCCCC2)c2ccccc12)C(N)=O [(S)-AB-[…] (11), N-[1-amino-3-methyl-1-oxobutan-2-yl]-1-(cyclohexylmethyl)-1H-indazole-3-carboxamide]
CLint scaled at 0.5 µM [1, 7]: 42.1 mL/min/kg | CLint scaled at 0.5 µM [1, 8]: 59.2 mL/min/kg | half-life at 0.5 µM [1, 6]: 27 ± 2.9 min | remaining at 3 h, 5 µM [2, 13]: 97.9 ± 7% | remaining at 3 h, 5 µM [2, 14]: 98.2 ± 7.2% | CLint scaled at 0.5 µM [5]: 194 mL/min/kg | half-life at 0.5 µM [5]: 39 ± 8.8 min | fraction unbound at 5 h, 10 µg mL^−1 ([4]; 10 µg mL^−1, read-out: PPB (%) (converted)): 0.028 | fraction unbound at 5 h, 10 µg mL^−1 [4, 15]: 0.028 ± 0.0219

Reference: PMC7961380, “A Systematic Study of the In Vitro Pharmacokinetics and Estimated Human In Vivo Clearance of Indole and Indazole-3-Carboxamide Synthetic Cannabinoid Receptor Agonists Detected on the Illicit Drug Market” (Molecules, 2021)
